From patent US9757350B2, “Small molecule inhibitors of replication protein A that also act synergistically with cisplatin” (Indiana University Research and Technology Corp., priority 2010, dated 2017)

How the values were obtained:
[1] = system: NSCLC cell lines A549 and H460; assay: Apoptosis by Annexin V/PI staining, NSCLC cell lines; type: cell-based; settings: 48 hours
Protocol: Referring now to FIG. 11A. Gel showing effect of MCI13E on DNA-RPA binding. […] Cytotoxicity was analyzed via crystal violet analysis as described in “methods” 48 hours following MCI13E treatment. Data represent the average and standard deviation of four replicate experiments with each replicate containing triplicate determinations and the circles represent data from H460 cells and squares A549 cells. Referring now to FIG. 11C. Graph of MCI13E induced death via apoptosis in NSCLC cell lines. Cell were treated with the indicated concentrations of MCI13E for 48 hours and analyzed for the induction of apoptosis via Annexin V/PI staining Referring now to FIG. 11D. Graph of cell survival as a function of [MCI1EC]. Percent survival was calculated for each cell line using untreated cells as a control. […]
Flow Cytometry—After determining the SMI cytotoxicity, H460, A549 and H1299 lung cancer cell lines were analyzed for apoptosis using the Annexin V-FITC/Propidium Iodide (PI) Vybrant® Apoptosis Assay kit (Invitrogen, Gaithersburg, Md.). […] Following treatment, both adherent and non-adherent cells were collected, processed via the manufacturer's protocol (Invitrogen) and analyzed on a FACScan flow cytometer (Becton Dickson, San Jose, Calif.). Data was analyzed using WinDMI software (The Scripps Research Institute, Can Diego, Calif.) and results are presented as a percentage of control (untreated cells).

[2] = target: T1, SpPot1(DBD) (Schizosaccharomyces pombe, UniProt O13988); assay: SpPot1(DBD) ssDNA binding; settings: protein pre-incubated with SMI
T1 construct: the Schizosaccharomyces pombe Pot1(DBD) domain (11) were studied
T1 sequence (O13988 1-389 limits assumed): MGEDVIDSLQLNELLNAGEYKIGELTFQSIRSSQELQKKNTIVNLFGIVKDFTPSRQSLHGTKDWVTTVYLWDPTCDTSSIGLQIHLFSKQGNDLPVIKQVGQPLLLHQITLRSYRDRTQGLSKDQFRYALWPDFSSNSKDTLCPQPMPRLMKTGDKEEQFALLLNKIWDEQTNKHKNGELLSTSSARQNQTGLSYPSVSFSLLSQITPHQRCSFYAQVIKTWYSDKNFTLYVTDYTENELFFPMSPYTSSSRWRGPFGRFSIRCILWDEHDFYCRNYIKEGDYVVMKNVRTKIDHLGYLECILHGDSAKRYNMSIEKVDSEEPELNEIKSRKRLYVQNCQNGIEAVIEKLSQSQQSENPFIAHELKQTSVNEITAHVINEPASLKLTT
Protocol: In order to study the specificity of the CheSS19, and MCI13E/F compounds, their effects on two ssDNA binding proteins which use OB-folds for recognition and binding of ssDNA, E. coli SSB (6) and the Schizosaccharomyces pombe Pot1(DBD) domain (11) were studied. The EcSSB protein is a non-sequence-specific ssDNA binding protein, whereas the SpPot1(DBD) protein is a telomere-specific, ssDNA binding protein. In these experiments, protein was pre-incubated with the SMIs, as was done for the RPA experiments, prior to addition of radiolabeled ssDNA to the reactions.

[3] = system: RPA; assay: Western blot of endogenous RPA34 levels; type: cell-based; settings: western blot for RPA34
Protocol: Referring now to FIG. 18. Blot showing Endogenous Levels of RPA. Each cell line analyzed were plated (3×10^6) in 10 cm dishes and allowed to adhere overnight. Following a 5 ml PBS wash the cells were scraped into 100 μl of RIPA buffer. Cell extracts (40 μg) were loaded onto 10% SDS-PAGE gels, transferred to nitrocellulose membranes and probed for the presence of RPA34. Purified RPA was used as a positive control while GAPDH was probed for a loading control.

[4] = system: H1299 cells; assay: Apoptosis by Annexin V/PI staining, H1299; type: cell-based; settings: H1299, Annexin V and propidium iodine staining
Protocol: Referring now to FIG. 13A. Cell Viability and Apoptosis of Ovarian and p53 null Lung Cancer Cell Lines. A) Ovarian cancer cell line A2780 and the p53 null lung cancer cell line, H1299, were treated with log dosing of MCI13E and viability analyzed via CCK-8 metabolic assay as described in Methods. Data is presented as cell survival which was determined as a percent of the untreated control cells and represents the average and standard deviation of triplicate experiments Referring now to FIG. 13B.
Flow Cytometry—After determining the SMI cytotoxicity, H460, A549 and H1299 lung cancer cell lines were analyzed for apoptosis using the Annexin V-FITC/Propidium Iodide (PI) Vybrant® Apoptosis Assay kit (Invitrogen, Gaithersburg, Md.). Cells were plated in 6-well dishes (2×10^5 cells total), treated for 24 (H1299) or 48 (H460 and A549) hours with increasing concentrations of SMI. Following treatment, both adherent and non-adherent cells were collected, processed via the manufacturer's protocol (Invitrogen) and analyzed on a FACScan flow cytometer (Becton Dickson, San Jose, Calif.). Data was analyzed using WinDMI software (The Scripps Research Institute, Can Diego, Calif.) and results are presented as a percentage of control (untreated cells).

[5] = system: H460 cells; assay: Cell cycle analysis by PI staining, H460; type: cell-based; settings: H460, increasing doses
Protocol: Referring now to FIG. 12A and FIG. 12B. Cell Cycle Analysis of Lung Cancer Cell Lines Following Treatment with MCI13E. A549. Referring now to FIG. 12C, and FIG. 12D. H460 were treated as indicated and analyzed for the cell cycle distribution using PI staining and flow cytometry. Quantification of data following 6 hours and 12 hour treatment with 10 and 20 μM MCI13E was performed for both A549 (FIG. 12E) and H460 (FIG. 12F) Data presented represent the averages of three replicate experiments.
Cell cycle analysis was also performed on the three lung cancer cell lines using PI staining to identify the potential arrest resulting from treatment with SMIs. Briefly, cells were plated in 6-well dishes (2×10^5 cells total) and treated for 6 or 12 hours with increasing concentration of inhibitor. Adherent and non-adherent cells were collected, washed twice with PBS containing 2% bovine serum albumin (BSA), resuspended in 70% cold EtOH and incubated overnight at −20° C. Cells were again collected and stained with PI (1 μg/mL) and RNaseA (25 μg/mL) for 30 min. at 37° C. followed by 1.5 hours at 4° C. in the dark. Flow cytometry was performed as above and data were analyzed on a histogram with events plotted against the FL2-A parameter. Cell cycle distribution was analyzed using the ModFit software and data presented represents three independent trials.

Compound | Mode of cell death [1] | Effect on SpPot1(DBD) ssDNA binding [2] | Levels of endogenous RPA [3] | Induction of apoptosis [4] | Cell cycle distribution [5]
CC1(C)C2CCC1(C)C(OC(=O)CBr)C2 (racemic) [MCI13E, (+/−)-Isobornyl bromoacetate] | induces death via classical apoptosis | no significant inhibition | No change in the levels of endogenous RPA | indicative of the induction of apoptosis | increase in the proportion of cells in S-phase
CC1(C)C2CCC1(C)C(OC(=O)CI)C2 (racemic) [MCI13F, (+/−)-Isobornyl iodoacetate] |  | no significant inhibition |  |  | 
